Among the data in a melting point compilation (Tetko et al.; mined from patent text by program, amines drawn as free bases though some values may be those of a salt) are melting point values, retold here.

The melting point is the temperature of the solid-liquid transition.

Compound `Cn1c(-c2ccc(-n3ccnc3)cc2)cnc1[C@H](Cc1ccccn1)N(C=O)c1cc2cc(Cl)ccc2o1` returned a melting point of 63 to 73 °C.

Take `Cn1ncc(/C=C/C(=O)Nc2ccc(C(=O)O)cc2)c1-c1ccc(F)cc1`: the melting point fell in the range of 291 to 292 °C.

Compound `Oc1nc(Cc2ccccc2)nc(O)c1-c1ccccc1` registered a melting point of 337 °C.

Consider `NC(=O)C1(c2c(F)cccc2Cl)CC1`, for which the melting point lay in the range of 98 to 102 °C.

On to `CCCN(CCC)c1ccc2c(c1)O/C(=C1/Oc3cc(N(CCC)CCC)ccc3C1=O)C2=O`, for which the melting point was found to be 283 °C.

In the case of `CC(C)(C)OC(=O)N[C@@H]1C(=O)N(OCC(=O)OCc2ccc([N+](=O)[O-])cc2)[C@@H]1COC(N)=O`, the melting point fell in the range of 189 to 191 °C.

Compound `COc1ccccc1NC(=O)Nc1nc(N2CCOCC2)nc(N(CCC(=O)O)Cc2ccc(Cl)c(Cl)c2)n1` came in with a melting point of 198 to 203 °C.

The compound `COC(=O)c1ccc(N2C3CCC2CN(CC(=O)N2CC=C(c4cccc5ccsc45)CC2)C3)nc1` came in with a melting point of 153 to 154 °C.

`C=C(C)C(=O)O[C@H]1C[C@@H](C(=O)OC)[C@]2(C)CC[C@H]3C(=O)O[C@H](c4ccoc4)C[C@]3(C)[C@H]2C1=O` showed a melting point of 196 to 199 °C.

With `COc1ccc(C2C=C3CCN(C)CC3C(CO)C2CO)cc1` (centres undefined), the melting point lay in the range of 169 to 171 °C.

Regarding `CCCCn1c(=O)cnn(-c2ccc(N3CCN(c4ccc(OC)cc4)CC3)cc2)c1=O`, the melting point amounted to 181 °C.

As for `O=C(Nc1ccc(OCCN2CCOCC2)c2ccccc12)c1cc(F)cc(OC2CCOCC2)c1`, the melting point fell in the range of 75 to 77 °C.

For `COc1ccc(C(=O)c2ccc(Cl)nc2)c(O)c1`, the melting point is 138 to 139 °C.

As to `CCN(CC)c1cc(C)nc(-c2ccncc2)n1`, the melting point fell in the range of 205 to 208 °C.

Regarding `CC(CCOc1c(-c2ccc(S(C)(=O)=O)cc2)cnn(-c2ccc(F)c(F)c2)c1=O)C(F)(F)F` (centres undefined), the melting point fell in the range of 126 to 128 °C.

`Cc1ccccc1C(=O)NC(NC(=NC#N)Nc1cccnc1)C(Cl)(Cl)Cl` (centres undefined) returned a melting point of 126 to 128 °C.

`CN1C(=O)C(Cc2ccccc2)(c2ccccc2O)c2ccccc21` (centres undefined): the melting point was 188 to 190 °C.

In the case of `Cc1oncc1C(=O)N1CCC(C)CC1`, the melting point lay within 44 to 45 °C.

Consider `C=CCOC(=O)Cc1cccc(NC(=O)NCC(=O)N(CC(=O)OC(C)(C)C)c2ccccc2C(=O)c2ccccc2)c1`, for which the melting point fell in the range of 122 to 124 °C.

`CCN(CC)c1ccc(N=c2scc(-c3ccc(Cl)c(S(=O)(=O)N(C)C)c3)n2C)cc1` had a melting point of 184 to 185 °C.

As to `COc1ccc(-c2nc(S(=O)c3ccc(C)cc3)n(C3CCCCO3)c2-c2ccc(OC)cc2)cc1` (centres undefined), the melting point fell in the range of 162 to 164 °C.

In turn, `CN1CCN(c2cccc3ccc(NCc4ccccc4)cc23)CC1` yielded a melting point of 115 to 117 °C.

Regarding `CC(COc1ccc(CC2SC(=O)NC2=O)cc1)NCC(O)c1cccc(C(F)(F)F)c1` (centres undefined), the melting point was in the range of 100 to 105 °C.

On to `CSc1nn(C(=S)Oc2ccccc2)c(=O)n1C`, for which the melting point was determined as 242 °C.

With `Nc1nc2c(s1)CC(CNC(=O)[C@@H]1CCCN1C(=O)[C@@H](CC1CCCCC1)NS(=O)(=O)Cc1ccccc1)CC2` (some centres undefined), the melting point is 203 to 205 °C.

Compound `CCCc1nc2c(N)nc3ccccc3c2n1CCCCC(N)=O` showed a melting point of 202 to 203 °C.

For the compound `CCOCc1cc2c(cc1C#Cc1ccccc1)NC(=O)CC(c1cccc(C#N)c1)=N2`, the melting point is 229 °C.

Regarding `CNCCC(=O)N1c2ccccc2N2CCc3cccc(c32)C1C` (centres undefined), the melting point was 124 to 126 °C.

On to `Cn1c(=O)n(CCCC(NS(=O)(=O)c2ccc(-c3ccc(Cl)cc3)cc2)C(=O)NO)c(=O)c2ccccc21` (centres undefined), for which the melting point was found to be 235 °C.

For `O=C(O)C1=Cc2c(ccc(Cl)c2-c2ccccc2)OC1C(F)(F)F` (centres undefined), the melting point was in the range of 229 to 231 °C.

In the case of `CCOC(=O)CC(=O)c1cc(F)c(N2CCC(N)C2)nc1Nc1ccc(F)cc1F` (centres undefined), the melting point lay within 140 to 142 °C.

On to `COc1cc2c(cc1OC)CCNCC2`, for which the melting point fell in the range of 86 to 89 °C.

In the case of `Cc1cc(OCc2cnc(-c3ccc(C(F)(F)F)cc3)nc2C2CC2)ccc1OC(C)(C)C(=O)O`, the melting point fell in the range of 191 to 192 °C.

Compound `CCCCCCCCCCOc1ccc(C(=O)NNC(=O)C(F)(F)C(F)(F)C(F)(F)F)cc1` had a melting point of 88 °C.

As to `C#CC1(OC(=O)c2ccccc2)C(COC(=O)c2ccc(Cl)cc2)OC(n2ccc(=O)[nH]c2=O)C1OC(=O)c1ccccc1` (centres undefined), the melting point was in the range of 158 to 160 °C.

As for `O=[N+]([O-])c1ccc(N2CCSCC2)cc1`, the melting point lay in the range of 142 to 144 °C.

The compound `Nc1nc(Br)nc2c1ncn2C1OC(CO)C(O)C1F` (centres undefined) displayed a melting point of 209 to 210 °C.

In turn, `CCn1cc(C(=O)O)c(=O)c2cc(F)c(-c3csc(CN)n3)c(NC)c21` yielded a melting point of 194 to 195 °C.

`Clc1ccccc1C(Cl)(c1ccccc1)c1ccccc1`: the melting point stood at 131 °C.

`CCc1cccc(C)c1NC(=O)CCBr` showed a melting point of 149 to 150 °C.

Turning to `O=C(O)c1cc(C(=O)O)cc(S(=O)(=O)Nc2ccc(F)c(C(F)(F)F)c2)c1`, the melting point was in the range of 286 to 288 °C.

Take `CC(C)(C)C(=O)SC/C(=C/c1ccccc1)C(=O)O`: the melting point was found to be 88 °C.

For `CCOc1cccc(CC(=O)O)c1OCCCc1cn(-c2ccc(C(F)(F)F)cn2)nc1OCC`, the melting point was in the range of 114 to 115 °C.

Take `CCCCCc1cnc(-c2ccc(N=C=S)cc2)nc1`: the melting point came out at 46 °C.

Consider `CCCOc1cnc(CCl)cc1O`, for which the melting point was in the range of 165 to 167 °C.

In turn, `COC(=O)[C@@H]1C[C@H](OC(=O)c2cccnc2)C(=O)[C@H]2[C@@]1(C)CC[C@H]1C(=O)O[C@H](c3ccoc3)C[C@]21C` gave a melting point of 200 to 204 °C.

`Cc1ccc(NC(=O)N(C)Cc2cccc3c2CN(C2CCC(=O)NC2=O)C3=O)cc1C` (centres undefined) yielded a melting point of 228 to 230 °C.

In turn, `CC1CSC(=O)C2Cc3ccccc3N2C1=O` (centres undefined) gave a melting point of 108 to 110 °C.

`CN1CCC(O)(C(c2cc(Cl)ccc2F)n2cccc2)CC1` (centres undefined) yielded a melting point of 124 to 125 °C.

`CNCC1Cc2cc(-c3ccccc3)cc(-c3ccc(C)cc3)c2O1` (centres undefined) showed a melting point above 250 °C.

Turning to `CN(C)C1CC2=CNC=C3C=C(C=O)OCC1=C32` (centres undefined), the melting point was in the range of 175 to 176 °C.

The compound `CC(=Cc1ccccc1)c1ccc2c(c1)C(C)(C)CCS2` showed a melting point of 81 to 83 °C.

`CC(C)c1ccc(-n2nc(O)c3c(=O)c4ccc(Cl)cc4[nH]c3c2=O)cc1` gave a melting point of 393 to 394 °C.

With `OC1CCc2c(-c3cccs3)cccc21` (centres undefined), the melting point lay in the range of 101 to 104 °C.

For the compound `CCc1cccc(NCCCc2cn(C(c3ccccc3)(c3ccccc3)c3ccccc3)cn2)c1`, the melting point fell in the range of 189 to 191 °C.

Take `Cc1oc(-c2ccco2)nc1COc1ccc(COc2ncccc2CC(=O)O)cc1`: the melting point was 151 to 152 °C.

For the compound `CC1(C)COC(=O)N1c1nc(-c2ccc(Cl)c(Cl)c2)cs1`, the melting point was 134 to 137 °C.

For `CCCc1nn(-c2ccc(C(F)(F)F)cn2)cc1CCCCn1cc(CCC(=O)O)c(-c2ccc(F)cc2)n1`, the melting point lay within 119 to 121 °C.

Turning to `CC(C)=NNc1nc(Cl)c(-c2c(F)cc(F)cc2F)c(NC(C)C(F)(F)F)n1` (centres undefined), the melting point is 157 to 159 °C.

`CO/C(=C\C=C\c1cc2cc(C(F)(F)F)ccc2[nH]1)C(=O)O` showed a melting point of 191 to 193 °C.

In the case of `CCOC(=O)c1[nH]cc2c1NC1=C(C(=O)CNC1)C2c1ccc(Sc2nc3cc(F)c(F)cc3[nH]2)o1` (centres undefined), the melting point fell in the range of 190 to 196 °C.

In the case of `C[C@H](NC(=O)c1ccc(C(N)=NO)cc1)C(=O)N1CCC(OCC(=O)OCOC(=O)C(C)(C)C)CC1`, the melting point turned out to be 126 °C.

Turning to `CC1(CNC(=O)C(F)(F)F)CN(c2c(F)cc3c(=O)c(C(=O)O)cn(C4CC4)c3c2F)C1`, the melting point lay within 232 to 237 °C.

On to `N=C(NO)c1ccc(-c2ccc(O)c(-c3nc4cc(C(=N)NO)ccc4[nH]3)c2)cc1`, for which the melting point lay in the range of 319 to 322 °C.

`Cc1ccc(S(=O)(=O)NCCCCOc2ccc(N)cc2)cc1` returned a melting point of 176 to 178 °C.

On to `CC(=NOCCC(N)=O)c1ccc(Cl)cc1`, for which the melting point was 149 to 150 °C.

Regarding `COC(=O)c1nccc2c1[nH]c1ccc(Oc3ccc([N+](=O)[O-])cn3)cc12`, the melting point fell in the range of 150 to 155 °C.

With `COc1cc2cnc(Cl)nc2cc1OC`, the melting point lay in the range of 237 to 238 °C.

For the compound `COc1cc(Nc2c(C#N)cnc3cc(-c4ccc(CN5CCC(O)CC5)cc4)sc23)c(Cl)cc1Cl`, the melting point lay within 149 to 150 °C.

Compound `CN1Cc2c(N)ncn2-c2ccccc2C1=O` came in with a melting point of 202 to 204 °C.

`CS(=O)(=O)c1ccc(-c2cc(C(=O)O)sc2-c2ccc(F)cc2)cc1` registered a melting point of 264 °C.

`CCOC(=O)C(NC(C)=O)=C(c1ccc(F)cc1)c1ccc(F)cc1` gave a melting point of 200 to 201 °C.

`CC1=C(C(=O)N2CCCCC2)C(c2ccccc2[N+](=O)[O-])C(S(C)(=O)=O)=C(C)N1` (centres undefined) gave a melting point of 275 to 276 °C.

The compound `C=CCNc1nc(NCC(C)(C)C)nc2ccc([N+](=O)[O-])cc12` had a melting point of 167 to 168 °C.

On to `COc1ccc(COc2ccc(CC(=O)O)cc2Cl)cc1Cl`, for which the melting point lay within 150 to 151 °C.

Regarding `O=[N+]([O-])c1ccc2oc(Cc3ccccc3)cc2c1`, the melting point came to 100 °C.

`CNC(=O)c1cc(N2CCN(C)CC2)ncc1Br` showed a melting point of 122 to 125 °C.

In the case of `CC12CCC3C(CC=C4CCCCC43C)C1CC(F)C2=O` (centres undefined), the melting point is 228 to 230 °C.

In the case of `CC(C)c1cc(O)cc2c1C(=O)N(CSc1ccccc1)S2(=O)=O`, the melting point was 127 to 130 °C.

The compound `COc1cc2c(Nc3ccc4c(c3)NCC4)c(C#N)cnc2cc1OCCCc1ccncc1` registered a melting point of 100 to 105 °C.

In turn, `CCOC(=O)NC(C(=O)NN(Cc1ccc(-c2nccs2)cc1)CC(O)C(Cc1ccccc1)NC(=O)C(NC(=O)OC)C(C)CC)C(C)C` (centres undefined) had a melting point of 209 to 211 °C.

Regarding `CCOC(=O)C(CC(=O)c1ccccc1C(F)(F)F)(NC(C)=O)C(=O)OCC`, the melting point is 104 to 105 °C.

`O=C(O)CNC(=O)CCCc1ccccc1` yielded a melting point of 99 to 101 °C.

`CC(=O)C(=NNc1ccc([N+](=O)[O-])cc1)Sc1ccc(Cl)cc1`: the melting point was in the range of 181 to 183 °C.
